The source of these data is article PMC11992618, “Development of cyclopeptide inhibitors specifically disrupting FXR–coactivator interaction in the intestine as a novel therapeutic strategy for MASH” (Life Metabolism, 2025).

Assay [1] concerns the target T1, PPARδ (Homo sapiens, UniProt Q03181).
T1 sequence (Q03181 1-441): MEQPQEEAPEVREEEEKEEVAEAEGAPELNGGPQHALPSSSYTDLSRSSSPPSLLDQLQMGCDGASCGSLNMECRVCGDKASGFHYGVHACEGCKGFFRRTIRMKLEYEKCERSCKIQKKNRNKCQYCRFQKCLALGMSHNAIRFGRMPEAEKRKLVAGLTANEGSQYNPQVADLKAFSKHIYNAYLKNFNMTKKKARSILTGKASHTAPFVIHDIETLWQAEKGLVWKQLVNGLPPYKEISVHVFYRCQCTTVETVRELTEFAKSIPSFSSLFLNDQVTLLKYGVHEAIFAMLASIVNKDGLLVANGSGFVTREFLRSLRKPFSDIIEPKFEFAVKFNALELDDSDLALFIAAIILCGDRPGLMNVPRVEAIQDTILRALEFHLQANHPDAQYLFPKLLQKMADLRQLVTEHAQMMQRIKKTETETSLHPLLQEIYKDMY
As to the kind of experiment: PPARδ cell-based reporter assay. Particulars: 10 μmol/L; inhibition of agonist-induced receptor activation. An excerpt:
(§1) Inhibition% means inhibition percentage of agonist-induced receptor activation.
On the technique in general: In a reporter assay the amount or activity of a reporter protein is the signal.

In assay [2] the target is T2, PPARγ (Homo sapiens, UniProt P37231).
T2 sequence (P37231 1-505): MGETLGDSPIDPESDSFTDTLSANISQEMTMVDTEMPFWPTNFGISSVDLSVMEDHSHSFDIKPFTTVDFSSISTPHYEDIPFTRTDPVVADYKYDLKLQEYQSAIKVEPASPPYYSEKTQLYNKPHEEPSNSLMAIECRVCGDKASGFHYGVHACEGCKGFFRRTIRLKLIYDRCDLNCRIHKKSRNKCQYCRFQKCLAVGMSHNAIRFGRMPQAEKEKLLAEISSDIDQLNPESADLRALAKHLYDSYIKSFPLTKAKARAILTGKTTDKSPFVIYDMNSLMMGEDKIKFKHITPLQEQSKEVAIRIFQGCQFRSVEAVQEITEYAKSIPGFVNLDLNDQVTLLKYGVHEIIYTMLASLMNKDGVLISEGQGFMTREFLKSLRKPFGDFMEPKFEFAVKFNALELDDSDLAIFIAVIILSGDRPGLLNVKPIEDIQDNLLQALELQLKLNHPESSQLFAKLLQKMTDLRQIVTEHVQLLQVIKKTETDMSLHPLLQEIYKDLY
As to the kind of experiment: PPARγ cell-based reporter assay. As to conditions: 10 μmol/L; inhibition of agonist-induced receptor activation.
From the text: as §1

For assay [3], the target named is T3, FXR-LBD (Homo sapiens, UniProt Q96RI1).
T3 construct: 50 μmol/L Biotin-DC646 were incubated with 50 μmol/L purified FXR-LBD
T3 sequence (Q96RI1 262-486 limits assumed): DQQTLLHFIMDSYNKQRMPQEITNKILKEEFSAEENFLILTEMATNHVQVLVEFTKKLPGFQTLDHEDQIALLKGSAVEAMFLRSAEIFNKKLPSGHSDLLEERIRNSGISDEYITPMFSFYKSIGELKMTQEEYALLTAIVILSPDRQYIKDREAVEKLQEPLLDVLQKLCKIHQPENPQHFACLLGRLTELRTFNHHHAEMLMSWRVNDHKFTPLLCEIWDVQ
Briefly: Co-immunoprecipitation of BIOTIN-DC646 and purified FXR-LBD. As to conditions: BIOTIN-DC646 50 μmol/L with purified FXR-LBD. In kind it is binding. On the procedure: For the co-immunoprecipitation of Biotin-DC646 and FXR-LBD, 50 μmol/L Biotin-DC646 were incubated with 50 μmol/L purified FXR-LBD at room temperature for 2 h at indicated conditions. These mixtures were then immunoprecipitated with beads which had been incubated with anti-His antibody (12698S, Cell Signaling Technology) at room temperature for 1 h. Immunoblotting was performed using the anti-BIOTIN antibody (sc-101339, Santa Cruz Biotechnology).

The target of assay [4] is T4, hFXR (Homo sapiens, UniProt Q96RI1).
T4 construct: expressed in transfected cells; host or cells: HEK293T
T4 sequence (Q96RI1 1-472 isoform Q96RI1-2): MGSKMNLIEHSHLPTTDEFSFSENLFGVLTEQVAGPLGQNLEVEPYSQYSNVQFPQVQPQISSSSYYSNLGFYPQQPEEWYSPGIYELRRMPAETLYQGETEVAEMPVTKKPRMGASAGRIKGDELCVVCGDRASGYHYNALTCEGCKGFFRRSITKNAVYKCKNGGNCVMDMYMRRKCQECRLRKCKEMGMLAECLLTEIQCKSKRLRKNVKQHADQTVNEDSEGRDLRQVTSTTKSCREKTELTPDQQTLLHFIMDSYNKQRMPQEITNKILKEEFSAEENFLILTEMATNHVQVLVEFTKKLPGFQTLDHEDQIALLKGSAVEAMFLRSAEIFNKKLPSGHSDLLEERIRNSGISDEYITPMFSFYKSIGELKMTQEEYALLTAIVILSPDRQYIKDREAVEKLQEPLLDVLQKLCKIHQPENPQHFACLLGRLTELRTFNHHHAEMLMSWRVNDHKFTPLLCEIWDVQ
Briefly: Luciferase reporter assay, FXR antagonism in transfected HEK293T cells. In kind it is cell-based. As to conditions: 100 µmol/L, in the presence of GW4064, HEK293T. On the procedure: HEK293T cells were used for the luciferase report assays and were cultured in DMEM with 10% FBS. The cells were incubated in DMEM media with 1% FBS for 4–6 h and then exposed to the indicated concentrations of compounds for 24 h.
For the FXR antagonism experiment, HEK293T cells were seeded in 96-well plates and transfected with pCMV-Script-hFXR and pGL4.11-hSHP-luciferase at a density of 3 × 10^4 cells/well, before culturing overnight. The compounds at indicated concentrations were added to the cells and incubated at 37°C for 1 h, before stimulating with 1% DMSO (negative control) and 5 μmol/L GW4064 (positive control) for 24 h. For the FXR agonism experiment, HEK293T cells were seeded in 96-well plates and transfected with pCMV-Script-hFXR and pGL4.11-hSHP-luciferase at a density of 3 × 10^4 cells/well, before culturing overnight. Then compounds at indicated concentrations were added to the cells and incubated at 37°C for 24 h. […]
The luciferase activities and cell viabilities were detected by the FIREFLYGLO Luciferase Assay System and Cell Titer-Blue® Cell Viability Assay according to the manufacturer’s instructions. Firefly luciferase activities and cell viabilities were measured using Spectra Max M5e (Molecular Devices).

By inhibition is commonly meant the change of the read-out against control, counted positive when it falls. A higher inhibition goes with a response far below the control. `CC(C)C[C@@H]1NC(=O)[C@@H]2CN(CCO2)c2cccc3c2c(cn3[Si](C(C)C)(C(C)C)C(C)C)C[C@H](NS(=O)(=O)C(F)(F)F)C(=O)OCCCCNC(=O)[C@H](CC(C)C)NC(=O)[C@@H]2CN(CCO2)c2cccc3c2c(cn3[Si](C(C)C)(C(C)C)C(C)C)C[C@H](NS(=O)(=O)C(F)(F)F)C(=O)OCCCCNC1=O` [DC646, N,N'-((1^2R,1^4S,16^2R,16^4S,4R,13R,19R,28R)-13,28-diisobutyl-5,12,15,20,27,30-hexaoxo-2^1,17^1-bis(triisopropylsilyl)-2^1H,17^1H-6,21-dioxa-11,14,26,29-tetraaza-1(4,2),16(2,4)-dimorpholina-2,17(4,3)-diindolacyclotriacontaphane-4,19-diyl)bis(1,1,1-trifluoromethanesulfonamide)]: the values for the inhibition at 10 µM in assay [1] and in assay [2] were 18.9% and 14%, respectively. Moreover, in assay [3], the “Binding with FXR-LBD (co-immunoprecipitation)” value was “directly bind”. The “Suppression of FXR activation (relative luciferase activity)” value in assay [4] is reported as “more than 70%”.
